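Tested at 5 concentrations; 48 h exposure; 96-well plates; endpoints linearly interpolated, else capped at highest concentration. Definition used: TGI = concentration required for complete inhibition of growth.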
Assays:
Test in all cases: inhibition of tumour cell growth, NCI panel, 48 h
LOX IMVI melanoma = test system: LOX IMVI melanoma
IGROV1 ovarian = test system: IGROV1 ovarian
DU-145 prostate = test system: DU-145 prostate
RXF 393 renal = test system: RXF 393 renal
SNB-78 CNS = test system: SNB-78 CNS
DMS 114 small cell lung = test system: DMS 114 small cell lung
M19-MEL melanoma = test system: M19-MEL melanoma
LXFL 529 NSCLC = test system: LXFL 529 NSCLC
KM20L2 colon = test system: KM20L2 colon
DLD-1 colon = test system: DLD-1 colon
DMS 273 small cell lung = test system: DMS 273 small cell lung
XF 498 CNS = test system: XF 498 CNS

Compound | TGI (LOX IMVI melanoma) | TGI (IGROV1 ovarian) | TGI (DU-145 prostate) | TGI (RXF 393 renal) | TGI (SNB-78 CNS) | TGI (DMS 114 small cell lung) | TGI (M19-MEL melanoma) | TGI (LXFL 529 NSCLC) | TGI (KM20L2 colon) | TGI (DLD-1 colon) | TGI (DMS 273 small cell lung) | TGI (XF 498 CNS)
COc1cc(N=CN(C)C)c2ncccc2c1 | > 100 µM | > 100 µM | > 100 µM | > 100 µM | – | – | – | – | – | – | – | –
CCCCCCCC1(N=[N+]=[N-])C(=O)c2ccccc2N(C)C1=O (stereo not drawn) | > 100 µM | > 100 µM | > 100 µM | > 100 µM | – | – | – | – | – | – | – | –
O=C1/C(=C/C=C/c2ccccc2)N=C(c2ccccc2)N1C1Nc2cc3c(cc2S1)NC(N1C(=O)/C(=C/C=C/c2ccccc2)N=C1c1ccccc1)S3 (stereo not drawn) | > 100 µM | > 100 µM | > 100 µM | > 100 µM | – | – | – | – | – | – | – | –
CC1=NN(C(=O)CC(=O)Nc2ccccc2C)C(=O)C1N=Nc1ccc(C(=O)O)cc1 (stereo not drawn) | > 100 µM | > 100 µM | > 100 µM | > 100 µM | – | – | – | – | – | – | – | –
CC(=O)Oc1ccc2c(c1)Oc1cc(C(C)=O)ccc1C21OC(=O)c2ccccc21 (stereo not drawn) | > 100 µM | > 100 µM | > 100 µM | > 100 µM | – | – | – | – | – | – | – | –
CN(NC(=O)c1ccco1)C1=NCCN1 | > 100 µM | > 100 µM | > 100 µM | > 100 µM | – | – | – | – | – | – | – | –
Cc1ccc(/C(O)=C/c2nc3ccccc3oc2=O)cc1 | – | > 100 µM | > 100 µM | > 100 µM | – | – | – | – | – | – | – | –
CCc1n[nH]c(=S)n1/N=C\c1ccc(-c2ccccc2Cl)o1 | 66.6 µM | > 100 µM | > 100 µM | > 100 µM | – | – | – | – | – | – | – | –
COc1cc(/C=C2\C[C@H]3[C@@H]4CC=C5C[C@@H](O)CC[C@]5(C)[C@H]4CC[C@]3(C)[C@H]2O)cc(OC)c1OC | 27.3 µM | > 100 µM | > 100 µM | 18.3 µM | – | – | – | – | – | – | – | –
N#Cc1c2ccc([N+](=O)[O-])cc2c(=O)n2c1sc1ccc(C(F)(F)F)cc12 | > 100 µM | > 100 µM | > 100 µM | > 100 µM | – | – | – | – | – | – | – | –
O=C(/C=C(\O)c1ccc(Cl)cc1)C(=O)N=Nc1c(O)[nH]c2ccc(Br)cc12 | > 100 µM | > 100 µM | > 100 µM | > 100 µM | – | – | – | – | – | – | – | –
COC(=O)CCCN(C)c1n[nH]c(N)n1 | > 100 µM | > 100 µM | – | > 100 µM | > 100 µM | > 100 µM | > 100 µM | > 100 µM | > 100 µM | > 100 µM | > 100 µM | –
Cc1nc2c(n1CCO)C(=O)c1ccccc1C2=O | > 100 µM | 84 µM | – | > 100 µM | > 100 µM | – | 6.6 µM | > 100 µM | > 100 µM | > 100 µM | 70.2 µM | 92.9 µM
COC(=O)/C=C/c1ccc2c(c1)CCC2 | > 100 µM | > 100 µM | > 100 µM | > 100 µM | – | – | – | – | – | – | – | –
Cn1c2ccccc2c2c(-c3ccccc3)[n+]3ccccc3nc21 | 37.4 µM | 80.9 µM | > 100 µM | – | – | – | – | – | – | – | – | –
COC1=C2CC(C)CC(OC)[C@@H](OC(=O)CCN)[C@H](C)/C=C(\C)C(OC(N)=O)C(OC)/C=C\C=C(/C)C(=O)NC(=CC1=O)C2=O (stereo partly drawn) | 2.22 µM | 3.25 µM | 20.8 µM | 17.5 µM | – | – | – | – | – | – | – | –
C=C1C(=O)O[C@@H]2[C@H]1C[C@@H](O)[C@H](C)[C@@](O)(C(=O)/C=C/C)[C@H]2OC(=O)C(C)CC (stereo partly drawn) | 12.3 µM | 12.8 µM | 22.8 µM | 5.36 µM | – | – | – | – | – | – | – | –

Compound | TGI (LOX IMVI melanoma) | TGI (IGROV1 ovarian) | TGI (DU-145 prostate) | TGI (RXF 393 renal) | TGI (SNB-78 CNS) | TGI (DMS 114 small cell lung) | TGI (M19-MEL melanoma) | TGI (LXFL 529 NSCLC) | TGI (KM20L2 colon) | TGI (DLD-1 colon) | TGI (DMS 273 small cell lung) | TGI (XF 498 CNS)
COc1cc(C2c3cc4c(cc3OC(NC3CCCCC3)C2C)OCO4)cc(OC)c1OC (stereo not drawn) | 17.6 µM | > 54 µM | > 100 µM | 0.82 µM | – | – | – | – | – | – | – | –
Cc1ccc(S(=O)(=O)N2CCN(S(=O)(=O)c3ccc(C)cc3)Cc3ccccc3C2)cc1 | > 100 µM | > 100 µM | > 100 µM | – | – | – | – | – | – | – | – | –
C=CC(Cl)(CBr)CCC(Br)=C(C)C (stereo not drawn) | 37.8 µM | 29.9 µM | > 100 µM | 38.5 µM | – | – | – | – | – | – | – | –
O=C(O)CN1CCNCCN(CP(=O)(O)O)CC1 | > 100 µM | > 100 µM | > 100 µM | > 100 µM | – | – | – | – | – | – | – | –
O=C(O)CNC(=O)CO/N=C1/C(c2c(O)[nH]c3ccccc23)=Nc2ccccc21 | > 100 µM | > 100 µM | > 100 µM | > 100 µM | – | – | – | – | – | – | – | –
Cc1ccc([N+](=O)[O-])c2c(NCCNC(=O)Cn3ccnc3[N+](=O)[O-])ccnc12 | > 100 µM | 86.6 µM | > 100 µM | 16.5 µM | – | – | – | – | – | – | – | –
Cc1ccc(S(=O)(=O)N2CC3OC(C)(C)OC3C2CO)cc1 (stereo not drawn) | – | > 100 µM | > 100 µM | > 100 µM | – | – | – | – | – | – | – | –
COc1cc2c(cc1OCCCOc1cc(-c3ccc(F)cc3)nc(C)n1)N=C[C@@H]1CCCN1C2=O | 28.3 µM | 44.8 µM | 36.1 µM | 54.3 µM | – | – | – | – | – | – | – | –
COC(OC)C1OC(CO)C(n2cc(C)c(=O)[nH]c2=O)C1O (stereo not drawn) | > 100 µM | > 100 µM | > 100 µM | > 100 µM | – | – | – | – | – | – | – | –
O=c1[nH]nc(Cc2ccccc2)n1/N=C/c1c(O)ccc2ccccc12 | > 100 µM | 93.4 µM | > 100 µM | 49.6 µM | – | – | – | – | – | – | – | –
C#CCOC(=O)c1ccccc1O | > 100 µM | > 100 µM | > 100 µM | > 100 µM | – | – | – | – | – | – | – | –
COc1ccc(CN2C[C@H]3[C@@H](CC(=O)O[C@H]3C)CC2=O)cc1 | – | > 100 µM | > 100 µM | > 100 µM | – | – | – | – | – | – | – | –
CC1(c2ccc(F)cc2)CC(c2ccc(F)cc2)=C(C#N)C(=C(C#N)C#N)N1 (stereo not drawn) | 38.6 µM | 32.3 µM | 28.5 µM | 28.3 µM | – | – | – | – | – | – | – | –
COc1cc(OC)cc(Oc2nc3ccccc3nc2C(=O)O)c1 | > 100 µM | > 100 µM | > 100 µM | > 100 µM | – | – | – | – | – | – | – | –
CC(=O)OC1CCN(C(=O)c2ccccc2)CC1CC1(c2cc3ccccc3[nH]2)OCCO1 (stereo not drawn) | > 100 µM | > 100 µM | > 100 µM | > 100 µM | – | – | – | – | – | – | – | –
Cc1nc(C)c(C(=O)NNC(=O)Cc2ccccc2)cc1C(=O)NNC(=O)Cc1ccccc1 | > 100 µM | > 100 µM | > 100 µM | > 100 µM | – | – | – | – | – | – | – | –
O=c1cc(-c2ccccc2)[nH]c2cc(F)c(F)cc12 | > 100 µM | > 54.1 µM | 34.1 µM | 0.616 µM | – | – | – | – | – | – | – | –
